Tests used:
Assay in all cases: relative viability (nuclei count vs DMSO), 5 days (fraction); higher = more cells survive
[1] = compound: CC[C@H](CO)Nc1nc(NCc2ccccc2)c2ncn(C(C)C)c2n1 [Seliciclib] + CC(C)C[C@H](NC(=O)[C@H](Cc1ccccc1)NC(=O)c1cnccn1)B(O)O [Bortezomib] (partner 0.002 µM)
How it was run: (§1)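 Each reported value is a median over duplicate plates. It expresses relative viability: treated-well nuclei count divided by vehicle-well nuclei count. Lung cancer cell lines in 1536-well plates were dosed by pin tool a day after seeding, alone with one drug or with a fixed anchor-drug dose plus five library-drug doses (not always all listed) in √10 steps, and nuclei were counted after 5 days.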

[2] = compound: CC[C@H](CO)Nc1nc(NCc2ccccc2)c2ncn(C(C)C)c2n1 [Seliciclib] + CC1(C)CCC(c2ccc(Cl)cc2)=C(CN2CCN(c3ccc(C(=O)NS(=O)(=O)c4ccc(N[C@H](CCN5CCOCC5)CSc5ccccc5)c(S(=O)(=O)C(F)(F)F)c4)cc3)CC2)C1 [Navitoclax] (partner 0.5 µM)
How it was run: as §1

[3] = compound: CC[C@H](CO)Nc1nc(NCc2ccccc2)c2ncn(C(C)C)c2n1 [Seliciclib] + Cc1nc(Nc2ncc(C(=O)Nc3c(C)cccc3Cl)s2)cc(N2CCN(CCO)CC2)n1 [Dasatinib] (partner 0.075 µM)
How it was run: as §1

[4] = compound: CC[C@H](CO)Nc1nc(NCc2ccccc2)c2ncn(C(C)C)c2n1 [Seliciclib] + CCNC(=O)c1noc(-c2cc(C(C)C)c(O)cc2O)c1-c1ccc(CN2CCOCC2)cc1 [Luminespib] (partner 0.01 µM)
How it was run: as §1

| Cell Line | relative viability ([1]; first compound 0.08 µM) | relative viability ([1]; first compound 0.253 µM) | relative viability ([1]; first compound 0.8 µM) | relative viability ([1]; first compound 2.53 µM) | relative viability ([1]; first compound 8 µM) | relative viability ([2]; first compound 0.08 µM) | relative viability ([2]; first compound 0.253 µM) | relative viability ([2]; first compound 0.8 µM) | relative viability ([2]; first compound 2.53 µM) | relative viability ([2]; first compound 8 µM) | relative viability ([3]; first compound 0.08 µM) | relative viability ([3]; first compound 0.253 µM) | relative viability ([3]; first compound 0.8 µM) | relative viability ([3]; first compound 2.53 µM) | relative viability ([3]; first compound 8 µM) | relative viability ([4]; first compound 0.08 µM) | relative viability ([4]; first compound 0.253 µM) | relative viability ([4]; first compound 0.8 µM) | relative viability ([4]; first compound 2.53 µM) | relative viability ([4]; first compound 8 µM) |
| --- | --- | --- | --- | --- | --- | --- | --- | --- | --- | --- | --- | --- | --- | --- | --- | --- | --- | --- | --- | --- |
| HCC-366 | 0.987 | 1.06 | 1.01 | 1.08 | 0.908 | 1.01 | 0.699 | 1.03 | 1.17 | 0.947 | 0.565 | 0.376 | 0.57 | 0.381 | 0.473 | – | – | – | – | – |
| HCC-827 | 1.08 | 1.03 | 1.05 | 1.04 | 0.881 | 1 | 1.03 | 1.01 | 0.976 | 0.953 | 0.359 | 0.298 | 0.258 | 0.324 | 0.236 | 0.519 | 0.589 | 0.55 | 0.829 | 0.588 |
| HOP-62 | 0.837 | 0.754 | 0.684 | 0.868 | 0.331 | 1.01 | 1.1 | 0.909 | 1.12 | 0.926 | 0.661 | 0.58 | 0.578 | 0.603 | 0.653 | 0.863 | 0.933 | 0.919 | 1 | 0.851 |
| IA-LM | 0.78 | 0.94 | 0.708 | 0.817 | 0.729 | 0.738 | 1.15 | 0.732 | 0.772 | 0.72 | – | – | – | – | – | – | – | – | – | – |
| LC-2-ad | 1.02 | 0.514 | 0.986 | 0.958 | 0.816 | 0.419 | 0.505 | 0.379 | 0.494 | 0.271 | 0.638 | 0.802 | 0.63 | 0.326 | 0.459 | 0.895 | 1.02 | 0.988 | 0.985 | 0.834 |
| LCLC-97TM1 | 0.816 | 0.767 | 0.646 | 0.163 | 0.195 | 0.324 | 0.462 | 0.414 | – | 0.223 | 0.758 | 0.965 | 0.732 | 0.333 | 0.704 | 0.843 | 0.81 | 0.449 | 0.684 | 0.469 |
| LCLC-103H | 0.94 | 1.03 | 0.92 | 0.939 | 1.01 | – | – | – | – | – | 0.535 | 0.499 | 0.57 | 0.276 | 0.481 | 1.02 | 0.958 | 0.763 | 0.993 | 0.774 |
| LK-2 | – | – | – | – | – | 0.797 | 0.648 | 0.823 | 0.643 | 0.536 | 0.305 | 0.414 | 0.436 | 0.226 | 0.217 | 0.186 | 0.236 | 0.164 | 0.174 | 0.253 |
| LOU-NH91 | 0.5 | 0.519 | 0.518 | 0.408 | 0.399 | 0.591 | 0.61 | 0.591 | 0.695 | 0.482 | 0.493 | 0.515 | 0.535 | 0.413 | 0.427 | 0.318 | 0.332 | 0.293 | 0.305 | 0.276 |
| NCI-H358 | – | – | – | – | – | – | – | – | – | – | 0.196 | 0.153 | 0.148 | 0.129 | 0.137 | 0.31 | 0.385 | 0.21 | – | 0.186 |
| NCI-H650 | 0.764 | 0.813 | 1.15 | – | 0.682 | – | – | – | – | – | 0.447 | 0.387 | 0.596 | 0.262 | 0.39 | 0.807 | 0.757 | 0.921 | 0.727 | 0.709 |
| NCI-H661 | 0.778 | 0.871 | 0.675 | 0.79 | 0.58 | – | – | – | – | – | 0.832 | 1.03 | 0.9 | 0.739 | 0.547 | 0.9 | 1.07 | 0.853 | 0.809 | 0.756 |
| NCI-H1299 | 0.995 | 1.1 | 0.985 | 1.04 | 0.992 | 0.996 | 1.14 | 1.02 | 1.03 | 1 | – | – | – | – | – | – | – | – | – | – |
| NCI-H1395 | – | – | – | – | – | 1.12 | 0.936 | 1.31 | 1.08 | 1.06 | 0.464 | 0.406 | 0.428 | 0.361 | 0.368 | 0.709 | 0.722 | 0.726 | 0.588 | 0.669 |
| NCI-H1563 | 0.856 | 0.79 | 0.892 | 0.806 | 0.861 | – | – | – | – | – | 0.536 | 0.525 | 0.503 | 0.416 | 0.428 | 0.479 | 0.518 | 0.526 | 0.49 | 0.453 |
| NCI-H1703 | 0.416 | 0.297 | 0.371 | 0.353 | 0.249 | 0.957 | 0.862 | 1.05 | 1.21 | 0.87 | – | – | – | – | – | – | – | – | – | – |
| NCI-H1793 | – | – | – | – | – | 0.432 | 0.335 | 0.326 | 0.511 | 0.313 | 0.33 | 0.323 | 0.414 | 0.37 | 0.482 | 0.216 | 0.158 | 0.147 | 0.307 | 0.14 |
| NCI-H1944 | – | – | – | – | – | 0.987 | 1.01 | 0.946 | 1.11 | 0.871 | 0.242 | 0.198 | 0.208 | 0.17 | 0.205 | 0.69 | 0.716 | 0.613 | 0.791 | 0.549 |
| NCI-H2170 | – | – | – | – | – | 0.671 | 0.338 | 0.596 | 0.667 | 0.523 | 0.547 | 0.464 | 0.472 | 0.636 | 0.52 | 0.738 | 0.552 | 0.729 | 1.04 | 0.714 |
| SK-MES-1 | – | – | – | – | – | 1.24 | 1.34 | 1.11 | 1.04 | 0.715 | 0.395 | 0.504 | 0.386 | 0.231 | 0.344 | 0.814 | 0.854 | 0.733 | 1.1 | 0.601 |
| SW 900 | – | – | – | – | – | – | – | – | – | – | 0.541 | 0.593 | 0.661 | 0.397 | 0.559 | 0.148 | 0.147 | 0.14 | 0.17 | 0.168 |

Reference: the supplement of paper PMC10307832
